Measurements: patent publication US9169270B2, “1-phenyl-substituted heterocyclyl derivatives and their use as prostaglandin D2 receptor modulators” (Actelion Pharmaceuticals Ltd., priority 2012, dated 2015)
pIC50: −log10 of the molar value.

Target: hCRTH2 receptor (Homo sapiens (Human), UniProt Q9Y5Y4)
Test: hCRTH2 receptor membranes radioligand (3H-PGD2) displacement assay
Details: hCRTH2 membrane fragments, Binding-Buffer with 0.1% BSA
In short: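 Membranes from HEK293 cells expressing recombinant hCRTH2 (20 μg/well) incubated with compound and ³H-PGD2 for 90 min at room temperature in Tris buffer pH 7.0 with NaCl, EDTA, 0.1% BSA, 10 mM MnCl2. Bound radioactivity collected on PEI-treated GF/C filters and counted; non-specific binding defined with excess PGD2.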

Chain of hCRTH2 receptor (Q9Y5Y4 whole entry): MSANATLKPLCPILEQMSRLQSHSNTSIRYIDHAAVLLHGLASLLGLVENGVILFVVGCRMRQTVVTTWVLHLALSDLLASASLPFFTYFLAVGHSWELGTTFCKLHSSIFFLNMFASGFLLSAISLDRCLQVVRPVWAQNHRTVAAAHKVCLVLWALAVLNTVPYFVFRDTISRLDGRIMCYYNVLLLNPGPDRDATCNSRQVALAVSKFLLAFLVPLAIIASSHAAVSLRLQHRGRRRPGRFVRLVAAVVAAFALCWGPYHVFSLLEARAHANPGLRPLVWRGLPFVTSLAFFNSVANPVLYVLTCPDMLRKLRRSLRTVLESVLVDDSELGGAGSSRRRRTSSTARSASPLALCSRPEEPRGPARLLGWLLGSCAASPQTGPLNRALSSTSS

Row | Compound | pIC50
1 | O=C(O)COc1ccc(Cl)cc1C1c2scnc2CCN1C(=O)/C=C/c1ccccc1 (racemic) [Example 45, (±)-(4-Chloro-2-{5-[(E)-(3-phenyl-acryloyl)]-4,5,6,7-tetrahydro-thiazolo[5,4-c]pyridin-4-yl}-phenoxy)-acetic acid] | 7.22
2 | O=C(O)COc1ccc(Cl)cc1C1c2scnc2CCN1C(=O)/C=C/c1ccc(F)cc1F (racemic) [Example 57, (±)-(4-Chloro-2-{5-[(E)-3-(2,4-difluoro-phenyl)-acryloyl]-4,5,6,7-tetrahydro-thiazolo[5,4-c]pyridin-4-yl}-phenoxy)-acetic acid] | 8.46
3 | O=C(O)COc1ccc(Cl)cc1C1c2scnc2CCN1C(=O)CCN1CCc2ccccc21 (racemic) [Example 52, (±)-{4-Chloro-2-[5-(3-2,3-dihydro-indol-1-yl-propionyl)-4,5,6,7-tetrahydro-thiazolo[5,4-c]pyridin-4-yl]-phenoxy}-acetic acid] | 7.75

Molecules with a higher pIC50, results first:

Row | pIC50 | Compound
4 | 8.55 | CCC(C)COC(=O)N1CCc2ncsc2[C@H]1c1cc(Cl)ccc1OCC(=O)O (mixture of isomers) [Example 70, (R)-4-(2-Carboxymethoxy-5-chloro-phenyl)-6,7-dihydro-4H-thiazolo[5,4-c]pyridine-5-carboxylic acid (±)-2-methyl-butyl ester]
5 | 8.77 | O=C(O)COc1ccc(Cl)cc1C1c2scnc2CCN1C(=O)OCc1ccc(Cl)cc1 (racemic) [Example 86, (±)-4-(2-Carboxymethoxy-5-chloro-phenyl)-6,7-dihydro-4H-thiazolo[5,4-c]pyridine-5-carboxylic acid 4-chloro-benzyl ester]
6 | 9.30 | O=C(O)COc1ccc(Cl)cc1[C@@H]1c2scnc2CCN1C(=O)OCc1cccc(F)c1F [Example 71, (R)-4-(2-Carboxymethoxy-5-chloro-phenyl)-6,7-dihydro-4H-thiazolo[5,4-c]pyridine-5-carboxylic acid 2,3-difluoro-benzyl ester]
